# Key:
# Assay in all cases: KINOMEscan competition binding
# [1] = biological target: BMPR1B (human) (UniProt O00238); conditions: compound 10.0 µM
# [2] = biological target: CAMKK2 (human) (UniProt Q96RR4); conditions: compound 10.0 µM
# [3] = biological target: CHUK (human) (UniProt O15111); conditions: compound 10.0 µM
# [4] = biological target: CLK1 (human) (UniProt P49759); conditions: compound 10.0 µM
# [5] = biological target: DAPK1 (human) (UniProt P53355); conditions: compound 10.0 µM
# [6] = biological target: DAPK3 (human) (UniProt O43293); conditions: compound 10.0 µM
# Chain of DAPK3 (human) (O43293 whole entry, looked up): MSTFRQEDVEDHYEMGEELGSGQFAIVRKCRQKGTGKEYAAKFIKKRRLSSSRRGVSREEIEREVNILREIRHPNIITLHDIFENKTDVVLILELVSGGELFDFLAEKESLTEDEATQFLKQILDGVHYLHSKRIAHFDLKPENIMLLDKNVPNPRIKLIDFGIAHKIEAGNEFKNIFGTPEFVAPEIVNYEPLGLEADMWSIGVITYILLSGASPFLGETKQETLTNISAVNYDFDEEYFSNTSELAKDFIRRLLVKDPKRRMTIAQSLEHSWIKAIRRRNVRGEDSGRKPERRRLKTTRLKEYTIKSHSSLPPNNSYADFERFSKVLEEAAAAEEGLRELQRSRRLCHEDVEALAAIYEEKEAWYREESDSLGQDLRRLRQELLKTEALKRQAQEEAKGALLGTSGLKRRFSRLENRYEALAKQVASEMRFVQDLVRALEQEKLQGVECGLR
# [7] = biological target: DYRK1B (human) (UniProt Q9Y463); conditions: compound 10.0 µM
# [8] = tested on: FLT3 (human), P36888 [K663Q]; conditions: compound 10.0 µM
# [9] = biological target: HIPK1 (human) (UniProt Q86Z02); conditions: compound 10.0 µM
# [10] = biological target: JAK3 JH1 catalytic (human) (UniProt P52333); conditions: compound 10.0 µM
# Chain of JAK3 JH1 catalytic (human) (P52333 whole entry, looked up): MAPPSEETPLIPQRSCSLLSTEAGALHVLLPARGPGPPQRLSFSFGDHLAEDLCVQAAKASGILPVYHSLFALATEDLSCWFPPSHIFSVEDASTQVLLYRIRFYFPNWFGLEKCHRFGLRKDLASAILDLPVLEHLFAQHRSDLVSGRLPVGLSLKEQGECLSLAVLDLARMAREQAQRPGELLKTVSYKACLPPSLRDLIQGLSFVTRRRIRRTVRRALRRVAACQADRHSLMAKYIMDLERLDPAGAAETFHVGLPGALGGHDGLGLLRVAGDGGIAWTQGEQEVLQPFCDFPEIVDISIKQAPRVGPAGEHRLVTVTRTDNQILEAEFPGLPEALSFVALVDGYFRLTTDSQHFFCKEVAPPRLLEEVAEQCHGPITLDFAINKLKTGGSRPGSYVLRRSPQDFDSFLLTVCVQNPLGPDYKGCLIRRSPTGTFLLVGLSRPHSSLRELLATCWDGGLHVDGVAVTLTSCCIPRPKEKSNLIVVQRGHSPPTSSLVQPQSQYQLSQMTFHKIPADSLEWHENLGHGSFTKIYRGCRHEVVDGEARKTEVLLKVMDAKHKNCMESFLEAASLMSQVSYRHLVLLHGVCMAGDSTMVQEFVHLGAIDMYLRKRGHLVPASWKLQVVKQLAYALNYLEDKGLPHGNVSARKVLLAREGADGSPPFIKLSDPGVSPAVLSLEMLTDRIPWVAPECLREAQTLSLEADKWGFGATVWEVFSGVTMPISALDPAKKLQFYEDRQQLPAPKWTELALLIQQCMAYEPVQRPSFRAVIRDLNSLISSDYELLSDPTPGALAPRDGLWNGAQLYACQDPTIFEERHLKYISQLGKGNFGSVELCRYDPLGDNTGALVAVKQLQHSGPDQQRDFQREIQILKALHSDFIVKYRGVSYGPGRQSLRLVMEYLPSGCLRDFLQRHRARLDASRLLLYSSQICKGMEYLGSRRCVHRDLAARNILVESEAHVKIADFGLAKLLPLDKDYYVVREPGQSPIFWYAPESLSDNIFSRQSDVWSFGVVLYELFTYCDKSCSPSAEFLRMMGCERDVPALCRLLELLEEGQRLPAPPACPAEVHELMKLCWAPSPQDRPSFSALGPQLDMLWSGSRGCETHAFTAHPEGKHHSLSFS
# [11] = biological target: KIT (human) (UniProt P10721); conditions: compound 10.0 µM
# [12] = biological target: MAP4K4 (human) (UniProt O95819); conditions: compound 10.0 µM
# [13] = biological target: PRKD1 (human) (UniProt Q15139); conditions: compound 10.0 µM
# [14] = biological target: RIOK2 (human) (UniProt Q9BVS4); conditions: compound 10.0 µM
# Chain of RIOK2 (human) (Q9BVS4 whole entry, looked up): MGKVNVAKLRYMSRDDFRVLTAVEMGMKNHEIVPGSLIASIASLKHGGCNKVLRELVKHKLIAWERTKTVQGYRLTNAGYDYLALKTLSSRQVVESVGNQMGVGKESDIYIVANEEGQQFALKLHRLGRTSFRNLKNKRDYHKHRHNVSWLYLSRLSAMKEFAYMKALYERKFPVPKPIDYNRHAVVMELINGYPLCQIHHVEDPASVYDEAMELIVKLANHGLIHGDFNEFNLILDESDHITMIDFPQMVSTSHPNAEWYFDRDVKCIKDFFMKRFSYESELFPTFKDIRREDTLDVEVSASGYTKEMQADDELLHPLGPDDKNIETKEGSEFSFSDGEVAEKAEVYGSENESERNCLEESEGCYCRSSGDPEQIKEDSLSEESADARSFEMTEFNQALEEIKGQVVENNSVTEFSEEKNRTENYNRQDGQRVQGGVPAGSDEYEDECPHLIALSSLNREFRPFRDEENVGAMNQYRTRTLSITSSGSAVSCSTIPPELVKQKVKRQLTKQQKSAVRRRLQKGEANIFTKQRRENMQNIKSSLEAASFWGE
# [15] = biological target: RIOK3 (human) (UniProt O14730); conditions: compound 10.0 µM
# [16] = biological target: RIPK2 (human) (UniProt O43353); conditions: compound 10.0 µM
# [17] = biological target: RPS6KA4 KD2 (human) (UniProt O75676); conditions: compound 10.0 µM
# [18] = biological target: TGFBR2 (human) (UniProt P37173); conditions: compound 10.0 µM
# [19] = biological target: CAMK1D (human) (UniProt Q8IU85); conditions: compound 10.0 µM
# [20] = biological target: CSNK1E (human) (UniProt P49674); conditions: compound 10.0 µM
# [21] = biological target: MYLK4 (human) (UniProt Q86YV6); conditions: for kinase still bound, per cent of control: compound 10.0 µM
# [22] = biological target: PAK2 (human) (UniProt Q13177); conditions: compound 10.0 µM
# [23] = biological target: PRKAA1 (human) (UniProt Q13131); conditions: compound 10.0 µM
# [24] = biological target: STK25 (human) (UniProt O00506); conditions: compound 10.0 µM
# [25] = biological target: CSNK1G2 (human) (UniProt P78368); conditions: compound 10.0 µM
# Chain of CSNK1G2 (human) (P78368 whole entry, looked up): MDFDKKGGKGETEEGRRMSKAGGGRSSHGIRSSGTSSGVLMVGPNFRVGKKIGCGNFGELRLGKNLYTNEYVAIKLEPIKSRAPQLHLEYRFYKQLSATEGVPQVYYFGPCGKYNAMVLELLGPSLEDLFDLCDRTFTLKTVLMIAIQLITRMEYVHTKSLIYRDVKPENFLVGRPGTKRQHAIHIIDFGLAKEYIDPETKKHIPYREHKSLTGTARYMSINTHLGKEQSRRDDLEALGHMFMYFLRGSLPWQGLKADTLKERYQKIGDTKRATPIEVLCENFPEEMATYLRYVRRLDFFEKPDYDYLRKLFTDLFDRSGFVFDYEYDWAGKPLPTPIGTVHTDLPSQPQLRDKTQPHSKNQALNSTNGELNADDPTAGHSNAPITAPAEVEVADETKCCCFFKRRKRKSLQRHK
# [26] = biological target: MST4 (human) (UniProt Q9P289); conditions: compound 10.0 µM
# [27] = biological target: AXL (human) (UniProt P30530); conditions: compound 10.0 µM
# Chain of DAPK1 (human) (P53355 whole entry, looked up): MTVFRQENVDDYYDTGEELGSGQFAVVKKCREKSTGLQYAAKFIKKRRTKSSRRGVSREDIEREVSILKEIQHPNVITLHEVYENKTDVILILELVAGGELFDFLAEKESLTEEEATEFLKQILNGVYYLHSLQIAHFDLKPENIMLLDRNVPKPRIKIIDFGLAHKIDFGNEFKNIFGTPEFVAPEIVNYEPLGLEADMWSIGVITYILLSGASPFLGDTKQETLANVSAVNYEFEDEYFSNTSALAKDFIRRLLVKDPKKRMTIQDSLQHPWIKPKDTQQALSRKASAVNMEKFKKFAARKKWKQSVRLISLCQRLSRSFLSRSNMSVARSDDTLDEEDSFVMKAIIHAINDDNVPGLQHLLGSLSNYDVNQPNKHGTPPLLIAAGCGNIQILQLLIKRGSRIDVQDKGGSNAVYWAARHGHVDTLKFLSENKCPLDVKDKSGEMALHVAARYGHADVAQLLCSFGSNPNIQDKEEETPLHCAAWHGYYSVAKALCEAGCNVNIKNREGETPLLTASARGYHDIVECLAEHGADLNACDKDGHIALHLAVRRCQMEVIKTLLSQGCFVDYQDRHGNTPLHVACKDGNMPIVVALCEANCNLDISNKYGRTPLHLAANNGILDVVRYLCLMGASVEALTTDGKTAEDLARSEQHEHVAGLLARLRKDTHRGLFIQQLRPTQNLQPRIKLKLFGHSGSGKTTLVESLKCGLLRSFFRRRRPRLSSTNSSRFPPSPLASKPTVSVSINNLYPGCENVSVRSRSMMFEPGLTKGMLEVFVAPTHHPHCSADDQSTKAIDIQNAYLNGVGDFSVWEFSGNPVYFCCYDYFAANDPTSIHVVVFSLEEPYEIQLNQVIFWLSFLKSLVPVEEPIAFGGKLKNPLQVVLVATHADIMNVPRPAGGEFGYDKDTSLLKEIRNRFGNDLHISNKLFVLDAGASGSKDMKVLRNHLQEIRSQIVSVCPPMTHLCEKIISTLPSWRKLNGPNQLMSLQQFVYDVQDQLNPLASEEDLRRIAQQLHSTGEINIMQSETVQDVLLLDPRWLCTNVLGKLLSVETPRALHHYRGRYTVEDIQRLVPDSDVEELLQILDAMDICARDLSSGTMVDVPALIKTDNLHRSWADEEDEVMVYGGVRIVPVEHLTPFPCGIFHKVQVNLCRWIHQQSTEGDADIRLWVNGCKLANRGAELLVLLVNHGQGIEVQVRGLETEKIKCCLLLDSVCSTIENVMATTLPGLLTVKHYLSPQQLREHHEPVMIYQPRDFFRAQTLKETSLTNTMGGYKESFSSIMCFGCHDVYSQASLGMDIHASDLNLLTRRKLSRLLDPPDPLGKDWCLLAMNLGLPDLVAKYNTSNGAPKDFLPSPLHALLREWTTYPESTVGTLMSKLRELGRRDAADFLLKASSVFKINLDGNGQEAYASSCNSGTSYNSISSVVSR
# Chain of CHUK (human) (O15111 whole entry, looked up): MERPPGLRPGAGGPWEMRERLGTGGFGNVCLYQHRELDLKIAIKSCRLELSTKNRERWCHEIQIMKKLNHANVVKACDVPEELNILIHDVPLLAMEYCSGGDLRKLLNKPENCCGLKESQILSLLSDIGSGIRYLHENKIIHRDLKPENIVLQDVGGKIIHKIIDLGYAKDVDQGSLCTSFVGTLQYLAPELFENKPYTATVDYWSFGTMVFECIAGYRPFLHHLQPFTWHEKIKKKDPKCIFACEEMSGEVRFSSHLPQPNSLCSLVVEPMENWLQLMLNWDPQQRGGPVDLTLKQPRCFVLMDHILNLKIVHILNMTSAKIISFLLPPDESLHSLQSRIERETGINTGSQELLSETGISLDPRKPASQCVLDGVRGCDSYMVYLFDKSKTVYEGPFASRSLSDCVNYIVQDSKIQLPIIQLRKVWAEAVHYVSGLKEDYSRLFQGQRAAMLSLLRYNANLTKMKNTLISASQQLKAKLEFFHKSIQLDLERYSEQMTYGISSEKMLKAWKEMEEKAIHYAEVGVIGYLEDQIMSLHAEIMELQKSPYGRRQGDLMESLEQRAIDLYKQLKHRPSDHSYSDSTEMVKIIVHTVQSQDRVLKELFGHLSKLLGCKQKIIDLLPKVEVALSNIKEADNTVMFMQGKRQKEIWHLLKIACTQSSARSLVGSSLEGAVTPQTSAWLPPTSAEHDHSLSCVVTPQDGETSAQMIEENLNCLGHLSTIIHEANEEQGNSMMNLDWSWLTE
"kinase still bound, per cent of control [1]","kinase still bound, per cent of control [2]","kinase still bound, per cent of control [3]","kinase still bound, per cent of control [4]","kinase still bound, per cent of control [5]","kinase still bound, per cent of control [6]","kinase still bound, per cent of control [7]","kinase still bound, per cent of control [8]","kinase still bound, per cent of control [9]","kinase still bound, per cent of control [10]","kinase still bound, per cent of control [12]","kinase still bound, per cent of control [13]","kinase still bound, per cent of control [15]","kinase still bound, per cent of control [16]","kinase still bound, per cent of control [17]","kinase still bound, per cent of control [18]","kinase still bound, per cent of control [20]","kinase still bound, per cent of control [21]",Structure (SMILES),also measured
4.1%,31%,15%,1.6%,6.4%,4.4%,3.2%,13%,0.5%,29%,25%,15%,6%,11%,0.35%,0.85%,,,CS(=O)(=O)Nc1ccc(-c2cc(/C=C3\SC(=N)NC3=O)c[nH]c2=O)cc1,"kinase still bound, per cent of control [11]: 22%; kinase still bound, per cent of control [14]: 33%"
,7.4%,1.4%,2%,5.9%,6.2%,11%,8.1%,,,,16%,2.2%,,27%,0.85%,1.4%,0.05%,N=C1NC(=O)/C(=C/c2ccc(-c3cncc4ccccc34)o2)S1,"kinase still bound, per cent of control [19]: 9%; kinase still bound, per cent of control [11]: 10%; Kd [21]: 55 nM; kinase still bound, per cent of control [22]: 24%; kinase still bound, per cent of control [23]: 24%; kinase still bound, per cent of control [24]: 18%"
2.2%,5.8%,30%,2.1%,2.2%,0.6%,0.4%,,0.2%,6.8%,,,8.6%,,0.1%,26%,26%,2.8%,Nc1cccc(-c2cc(/C=C3\SC(=O)NC3=O)c[nH]c2=O)c1,"kinase still bound, per cent of control [25]: 19%"
12%,22%,15%,1.3%,8.3%,8.6%,3.6%,,0.15%,26%,,32%,,34%,1.8%,5%,,8.1%,N=C1NC(=O)/C(=C/c2ccc(-c3ccc(F)cc3O)o2)S1,"kinase still bound, per cent of control [26]: 32%; kinase still bound, per cent of control [23]: 32%"
,33%,,0.9%,3.2%,33%,2.8%,14%,,32%,3.5%,,,,0.55%,,21%,30%,CN1C(=O)[C@H]2CCC[C@H]2N(C2CCCC2)c2nc(Nc3ccc(C(N)=O)cc3)ncc21,"kinase still bound, per cent of control [27]: 13%; kinase still bound, per cent of control [23]: 31%; kinase still bound, per cent of control [14]: 6%"
10%,,19%,,,25%,17%,,19%,,5.5%,22%,19%,1.4%,,1.7%,2.8%,29%,CS(=O)(=O)Nc1ccc(-c2cncc(/C=C3\SC(=N)NC3=O)c2)cc1,"kinase still bound, per cent of control [25]: 0.75%; kinase still bound, per cent of control [11]: 8.2%; kinase still bound, per cent of control [14]: 23%"
11%,,,3.5%,2.7%,4.7%,1%,33%,0.15%,,9%,7%,9.4%,27%,0.1%,33%,,,N=C1NC(=O)/C(=C/c2c[nH]c(=O)c(-c3ccc(N4CCNCC4)nc3)c2)S1,
8.8%,18%,9.5%,3.4%,7.6%,7.4%,1.8%,,1.4%,14%,,26%,20%,,2.2%,3.6%,,5.9%,N=C1NC(=O)/C(=C/c2ccc(-c3ccccc3O)o2)S1,
14%,29%,,,4%,6.9%,3.1%,,,,7.9%,,,6.6%,1.2%,12%,,,CS(=O)(=O)Nc1ccc(-c2ncc(/C=C3\SC(=N)NC3=O)s2)cc1,"kinase still bound, per cent of control [25]: 14%"
,33%,16%,0.55%,9.7%,25%,5.6%,,0.35%,32%,,,,,0.75%,9%,,6%,N=C1NC(=O)/C(=C/c2ccc(-c3ccc(C(N)=O)cc3O)o2)S1,
,,,20%,15%,29%,25%,,0.6%,,,,,,,2.4%,22%,32%,N=C1NC(=O)/C(=C/c2ccc(-c3csc4ccccc34)o2)S1,
7.4%,31%,19%,18%,3.7%,6.2%,15%,,2.2%,,,,7.4%,,0.15%,14%,,,CSC1=NC(=O)/C(=C/c2c[nH]c(=O)c(-c3ccc(NS(C)(=O)=O)cc3)c2)S1,
